# Columns and labels:
# [1] = test system: sorbitol accumulation in sciatic nerves; assay: Effect of in vivo doses on sorbitol accumulation in sciatic nerves of diabetic rats; parameters: species or system Sprague Dawley rats
# Source text: (§1) 2.2 Effect of "in vivo" doses on sorbitol accumulation in sciatic nerves and crystalline lenses of diabetic rats:
# (§2) Estimates were made of the effects of the products on the proportion of plasma glucose and the sorbitol content of the crystalline lenses and sciatic nerves of rats.
# [2] = test system: sorbitol accumulation in crystalline lenses; assay: Effect of in vivo doses on sorbitol accumulation in crystalline lenses of diabetic rats; parameters: species or system Sprague Dawley rats
# Source text: as §1, §2
# [3] = Effect of in vivo doses on plasma glucose of diabetic rats; parameters: species or system Sprague Dawley rats; details: n = 5, average ± standard deviation
# Description: Compound No. 1 (CP 3182 AR) and No. 2 (CP 3192 AR) were evaluated at various doses, using the experimental model described hereinbefore (.sctn.2.1).
# In the case of each product, 25 Sprague Dawley rats fasted the previous day were made diabetic by an intraperitoneal injection of streptozotocin (75 mg/kg). The rats were divided into 5 groups of 5, each orally given 0.3, […] or 10 mg/kg of CP 3182 AR or a control.
# An identical experiment was performed with CP 3192 AR at the same doses. Treatment was given immediately after the streptozotocin, and 7 and 24 hours later. The animals were sacrificed 27 hours after induction. Estimates were made of the effects of the products on the proportion of plasma glucose and the sorbitol content of the crystalline lenses and sciatic nerves of rats.
# [4] = Curative effect of single dose: plasma glucose; type: in vivo, Sprague Dawley rats; details: for Plasma glucose, treated: 10 mg/kg oral 24 h after diabetes induction
# Description: (§3) 2.3.2. Curative effect: CP 3192 AR was administered 24 hours after induction of diabetes.
# (§4) As before, the experiment was made on 33 male Sprague Dawley rats weighing about 200 g. The 33 rats, which had been fasted the previous day, were made diabetic by an intraperitoneal injection of streptozotocin (75 mg/kg).
# (§5) 24 hours after induction of diabetes, 3 rats were sacrificed and used as diabetic controls. A dose of 10 mg/kg of CP 3192 AR was orally administered to 15 rats whereas the other 15 were given the excipient without an active product. 3 control rats and 3 rats treated with CP 3192 AR were sacrificed 2, 4, 8, 24 and 48 hours after administration of the product.
# (§6) Estimates were made of the effects of the product on the proportion of plasma glucose and the sorbitol content of the crystalline lenses and sciatic nerves of rats made diabetic by streptozotocin.
# [5] = Acute oral toxicity (LD50); type: in vivo; details: mouse, in vivo, mice, read-out: Lethal dose LD50
# Description: The LD 50 was calculated by the method of Litchfield and Wilcoxon (J. Pharmacol. Exp. Ther., 96, 99, 1949) and is expressed in mg/kg. The products were orally administered to mice.
# (§7) Behaviour was studied, 2, 4, 6 and 24 hours after treatment. Observation was continued if symptoms persisted at that time. Deaths were recorded during the 14 days after treatment. The results are given in Table II, in which the numbers of the compounds are the same as the numbers given in column 1 of Table I.
# [6] = test system: accumulation of sorbitol in the sciatic nerves; assay: Curative effect of single dose: sorbitol in sciatic nerves; type: in vivo, Sprague Dawley rats; details: for Accumulation of sorbitol in sciatic nerves, treated: 10 mg/kg oral
# Description: as §3, §4, §5, §6
# [7] = test system: accumulation of sorbitol in the crystalline lenses; assay: Inhibition of accumulation of sorbitol in crystalline lenses of diabetic rats; type: in vivo, Sprague Dawley rats
# Description: 2.1 Inhibition of accumulation of sorbitol in crystalline lenses and nerves of diabetic rats:
# The effects of the products according to the invention on the proportion of plasma glucose and the accumulation of sorbitol in the crystalline lenses and sciatic nerves of rats made diabetic by streptozotocin were examined by the method of M. J. Peterson, et al (Metabolism, 28, 456-461 (1979)).
# Fasted Sprague Dawley rats were made diabetic by intraperitoneal injection of streptozotocin (75 mg/kg). The product under test was orally administered at a dose of 25 mg/kg after 0, 7 and 24 hours. The rats were sacrificed 27 hours after induction of diabetes. The crystalline lenses and sciatic nerves were taken and preserved at -20° C. until analysed. The crystalline lenses and sciatic nerves were homogenized in water and the proteins were precipitated from ethanol. The precipitate was eliminated by centrifuging and the supernatant liquid was lyophylised. The sorbitol in the sample was determined by the method of B. Bjorkqvist (J. of Chromatograph, 218, 65-71 (1981)), adapted by A. Lenaers et al. (Arch. Intern. Physiol. Bioch., 91, B, 62-63 (1983)).
# The sample was dissolved in pyridine containing galactitol as an internal standard. Derivatives were formed therefrom by phenylisocyanate during incubation for 1 hour at 60° C. The reaction was then stopped by adding methanol and the derivatives were separated and determined by HPLC.
# The results are expressed as percentage inhibition of the accumulation of sorbitol, compared with the controls.
# mice = assay: Effect on behaviour (Irwin method), side effects; type: in vivo
# Description: The effect on behaviour was studied by a method derived from that of S. Irwin (Gordon Res. Conf. on Medicinal Chem., 133, 1959). The substances, suspended in 1% tragacanth mucilage, were orally administered via an intra-gastric probe to groups of 5 male mice fasted for 18 hours. The maximum tested dose was 3 000 mg/kg or 1 000 mg/kg, and smaller doses were tested if an effect has been observed.
# as §7
compound,measurement,setting,value
"CC(=O)OCN1C(=O)N(COC(C)=O)C2(C1=O)c1ccccc1-c1ccccc12 [Compound 2, bis-(1',3'-acetoxymethyl)-spiro-/fluorene-9,4'-imidazolidine/-2',5'-dione]","% inhibition of sorbitol accumulation, Sciatic nerves","[1]; 0.3 mg/kg oral at 0, 7, 24 h",42 ± 9%
same,"% inhibition of sorbitol accumulation, Sciatic nerves","[1]; 1 mg/kg oral at 0, 7, 24 h",40 ± 17%
same,"% inhibition of sorbitol accumulation, Sciatic nerves","[1]; 3 mg/kg oral at 0, 7, 24 h",68 ± 11%
same,"% inhibition of sorbitol accumulation, Sciatic nerves","[1]; 10 mg/kg oral at 0, 7, 24 h",79 ± 9%
same,ED50,"[1]; Rattus norvegicus, 27 h, sciatic nerves, diabetic rats, oral, read-out: ED50 (dose at which measured inhibition of aldose reductase activity is 50%)",1 mg/kg
same,"therapeutic index MED/ED50, sciatic nerves",[1]; sciatic nerves,above 3 000
same,"% inhibition of sorbitol accumulation, Crystalline lenses","[2]; 0.3 mg/kg oral at 0, 7, 24 h",3 ± 25%
same,"% inhibition of sorbitol accumulation, Crystalline lenses","[2]; 1 mg/kg oral at 0, 7, 24 h",13%
same,"% inhibition of sorbitol accumulation, Crystalline lenses","[2]; 3 mg/kg oral at 0, 7, 24 h",46%
same,"% inhibition of sorbitol accumulation, Crystalline lenses","[2]; 10 mg/kg oral at 0, 7, 24 h",66%
same,ED50,"[2]; Rattus norvegicus, 27 h, crystalline lenses, diabetic rats, oral, read-out: ED50 (dose at which measured inhibition of aldose reductase activity is 50%)",3 mg/kg
same,"therapeutic index MED/ED50, crystalline lenses",[2]; crystalline lenses,about 1 000
same,Plasma glucose,[3]; 0.3 mg/kg oral,425 ± 82 mg/100 ml
same,Plasma glucose,[3]; 1 mg/kg oral,444 ± 76 mg/100 ml
same,Plasma glucose,[3]; 3 mg/kg oral,446 ± 70 mg/100 ml
same,Plasma glucose,[3]; 10 mg/kg oral,472 ± 55 mg/100 ml
same,"Plasma glucose, treated",[4]; 2 h,406 ± 28 mg/100 ml
same,"Plasma glucose, treated",[4]; 4 h,459 ± 73 mg/100 ml
same,"Plasma glucose, treated",[4]; 8 h,575 ± 14 mg/100 ml
same,"Plasma glucose, treated",[4]; 24 h,478 ± 83 mg/100 ml
same,"Plasma glucose, treated",[4]; 48 h,456 ± 117 mg/100 ml
same,effect on the proportion of plasma glucose,[4]; single dose 10 mg/kg,no effect
same,LD50 at 336 h,[5],> 3000 mg/kg
same,"Accumulation of sorbitol in sciatic nerves, treated",[6]; 2 h after administration,4.8 ± 2.0 µg
same,"Accumulation of sorbitol in sciatic nerves, treated","[6]; 4 h after administration, n = 1",4.0 µg
same,"Accumulation of sorbitol in sciatic nerves, treated","[6]; 8 h after administration, n = 1",2.2 µg
same,"Accumulation of sorbitol in sciatic nerves, treated",[6]; 24 h after administration,2.5 ± 0.4 µg
same,"Accumulation of sorbitol in sciatic nerves, treated",[6]; 48 h after administration,5.9 ± 1.8 µg
same,proportion of sorbitol in sciatic nerves (in words),[6]; single dose 10 mg/kg,greatly reduces
same,"Inhibition of accumulation of sorbitol in vivo, crystalline lenses","[7]; oral 25 mg/kg at 0, 7 and 24 h, sacrificed 27 h",86%
same,inhibition of accumulation of sorbitol in crystalline lenses and sciatic nerves (in words),"[7]; oral 25 mg/kg, lenses and sciatic nerves",particularly active
same,side effect observed,mice; dose of 3000 mg/kg,no side effect was observed
same,MED (minimum dose at which a side effect is observed),"mice; mice, oral",> 3 000 mg/kg

# From patent publication US4853401A, “Spiro-hydantoins as aldose reductase inhibitors” (priority 1987, dated 1989)
